Where two headings read alike, the source gives them in different places.
How the values were obtained:
[1] = system: Cyp24A1 mRNA in SuFu−/− C3H10T1/2 cells; assay: Cyp24A1 up-regulation in SuFu−/− C3H10T1/2 cells; assay type: cell-based, mouse; settings: 24 h
[2] = system: primary Ptch-CKO MB cells; assay: Anti-proliferation (MTS) in primary Ptch-CKO MB cells; assay type: cell-based; settings: Mus musculus, 48 h incubation, mean ± SEM
Protocol: Ptch-CKO MB cells, derived from a conditional Patched knockout mouse, lack Ptch-like ASZ001 cells. Consequently, the inhibitory effect of the compound on Ptch-CKO MB cells directly reflects its suppression of the canonical Hh signaling pathway. Cell viability was assessed by MTS proliferation assay kit (Promega, Madison, WI, USA) according to the manufacturer’s protocol. Culture conditions and experimental protocols to determine GI50 values in the primary murine Ptch-CKO MB cells were as previously described.

[3] = system: Hh signaling (Gli1 mRNA) in SuFu−/− C3H10T1/2 cells; assay: Gli1 down-regulation in SuFu−/− C3H10T1/2 cells; assay type: cell-based, mouse; settings: 24 h
ASZ001 cells = assay: Anti-proliferation (MTS) in ASZ001 cells; assay type: cell-based; settings: Mus musculus, 48 h incubation, mean ± SEM
[4] = system: VDR signaling (Cyp24A1 mRNA) in ASZ001 cells; assay: Cyp24A1 mRNA expression (qPCR) in ASZ001 cells; assay type: cell-based; settings: Mus musculus, read-out: Cyp24A1 mRNA levels relative to DMSO
[5] = system: Hh signaling pathway (Gli1 mRNA) in ASZ001 cells; assay: Gli1 mRNA down-regulation (qPCR) in ASZ001 cells; assay type: cell-based; settings: Mus musculus
Smo protein = target: T1, Smo protein (Homo sapiens, UniProt Q99835); assay: Surface plasmon resonance (SPR) binding to Smo; settings: 2.5, 5, 10 μM in PBS, 4 °C
T1 construct: purchased ACRO Biosystems SMO-H52P3
T1 sequence (Q99835 28-787): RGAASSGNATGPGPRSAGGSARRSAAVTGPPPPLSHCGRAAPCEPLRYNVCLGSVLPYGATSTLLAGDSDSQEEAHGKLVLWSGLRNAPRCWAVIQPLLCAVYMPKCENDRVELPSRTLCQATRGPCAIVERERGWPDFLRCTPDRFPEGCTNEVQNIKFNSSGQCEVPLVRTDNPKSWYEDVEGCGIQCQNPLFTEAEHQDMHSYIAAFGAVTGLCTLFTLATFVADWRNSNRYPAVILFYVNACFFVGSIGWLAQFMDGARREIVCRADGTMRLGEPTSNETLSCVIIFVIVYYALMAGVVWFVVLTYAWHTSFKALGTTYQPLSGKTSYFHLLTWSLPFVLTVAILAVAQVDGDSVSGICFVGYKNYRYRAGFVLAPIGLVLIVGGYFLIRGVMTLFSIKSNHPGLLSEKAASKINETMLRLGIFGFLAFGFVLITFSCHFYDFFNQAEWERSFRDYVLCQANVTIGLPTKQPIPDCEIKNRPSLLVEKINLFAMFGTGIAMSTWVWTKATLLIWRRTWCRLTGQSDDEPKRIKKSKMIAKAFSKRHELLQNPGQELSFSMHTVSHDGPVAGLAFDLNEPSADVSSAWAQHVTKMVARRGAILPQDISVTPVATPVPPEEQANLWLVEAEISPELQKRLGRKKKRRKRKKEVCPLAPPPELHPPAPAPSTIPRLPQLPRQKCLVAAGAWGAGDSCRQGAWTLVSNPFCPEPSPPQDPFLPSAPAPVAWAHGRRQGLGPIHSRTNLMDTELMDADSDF
Protocol: Surface plasmon resonance (SPR) was used to evaluate the binding capacity of the compounds 3j and 4i to Smo. […] To investigate the binding sites of the analogues on Smo, the ability of 3j and 4i to displace BODIPY-Cyc from HEK293T cells overexpressing full-length human Smo was evaluated. […] Smo contains two small molecule binding sites, one located in the extracellular cysteine-rich domain (CRD) and the other in the 7-transmembrane helix (7-TM) region. […] Endogenous oxidized sterols can regulate Smo activity by binding CRD [27]. These analogues, as mimetics of steroid hormones, may interact with Smo by binding to CRD.
SPR analysis was conducted as described in papers. The analyses of interactions between Smo protein (ACRO Biosystems, SMO-H52P3, Newark, DE, USA) and compounds at different concentrations (2.5, 5, 10 μM) was performed in PBS and a flow rate of 2 μL/s at 4 °C. The sensor chip surface was regenerated by injection of 0.5% SDS: Glycine-HCl (pH = 2.0) = 1:1 solution.

[6] = system: Hh signaling (Gli1 mRNA) in VDR−/− C3H10T1/2 cells; assay: Gli1 down-regulation in VDR−/− C3H10T1/2 cells; assay type: cell-based, mouse; settings: 24 h
[7] = system: VDR signaling (Cyp24A1 mRNA) in C3H10T1/2 cells; assay: Cyp24A1 mRNA up-regulation (qPCR) in C3H10T1/2 cells; assay type: cell-based, mouse; settings: Mus musculus, C3H 10T1/2, 5 μM with OHCs 5 μM, 24 h, relative to DMSO (set to 1.0)
Protocol: (§1) The VD3 analogues were initially assessed for their ability to inhibit the Hh signaling pathway by evaluating the effects on endogenous Gli1 mRNA levels at a single concentration (5 μM) co-administration of oxysterols (OHCs; 20(S)-hydroxycholesterol, 22(S)-hydroxycholesterol at 5 μM each) in C3H10T1/2 cells, an Hh-dependent mouse embryonic fibroblast (MEF) cell line. […] VD3 derivatives may retain some VDR agonistic activity, thereby compromising the selectivity of these compounds as Hh inhibitors. The selectivity profile of the analogues for Hh inhibition, compared to typical VDR activation, was assessed by measuring the ability to up-regulate Cyp24a1 mRNA levels in the same cellular system and by evaluating their binding to VDR using a fluorescence polarization-based competition assay (Table 1).
(§2) Mouse embryonic fibroblast cell line (C3H10T1/2, wild-type, VDR^−/−, SuFu^−/−), mouse keratinocyte cell line (ASZ001), and human embryonic kidney cell line (HEK293T) were purchased from China Center for Type Culture Collection (CCTCC; Wuhan, Hubei, China) and cultured under standard protocols. […] Therefore, they can be used to assess the inhibitory strength of the Hh signaling and the selectivity of the VDR signaling. VDR^−/− and SuFu^−/− C3H10T1/2 cells were used to study compounds selectivity for Hh and VDR signaling. If compounds regulate Hh signaling independently of VDR, their ability to down-regulate Gli1 mRNA expression should be abolished in SuFu^−/− C3H10T1/2 cells. […] The loss of Ptch in ASZ001 cells […], so down-regulating Gli1 reflects direct Smo inhibition by the compound. Comparing results from ASZ001 and C3H10T1/2 cells highlights the compound’s inhibition of the Hh signaling pathway.
(§3) RNA isolation in C3H10T1/2 cells was performed in 24-well plates (50,000 cells plated; TRIZOL Reagent); in ASZ001, cells were done in 35 mm dishes (300,000 cells plated; TRIZOL Reagent). cDNA synthesis was performed utilizing the SweScript All-in-One RT SuperMix Kit (Servicebio, Wuhan, China) per the manufacturer’s instructions on a BioRad S1000 Thermal Cycler (Hercules, CA, USA). qPCR (Hh signaling pathway and VDR) analysis of target genes was performed on Step OnePlus (ABI) using the Taqman Gene Expression Assays: mouse ActB (Mm00607939_s1), mouse GLI1 (Mm00494645_ml), mouse PTCH1(Mm00436026_m1), and mouse CYP24A1 (Mm00487244_ml). Relative gene expression levels were computed via the ΔΔCt method. ActinB mRNA expression levels of all samples were normalized to DMSO control ActinB mRNA levels (vehicle; set at 1.00). […] The mRNA expression levels from drug-treated samples were compared to OHCs levels (Gli1, PTCH) and DMSO control (Cyp24A1).

full-length human Smo = target: T2, full-length human Smo (Homo sapiens, UniProt Q99835); assay: BODIPY-Cyc displacement (flow cytometry) in HEK293T cells overexpressing Smo; assay type: binding; settings: up to 10 μM
T2 construct: HEK293T cells overexpressing full-length human Smo was evaluated; expressed in transfected cells; host or cells: HEK293T
T2 sequence (Q99835 28-787): as above

recombinant VDR = target: T3, recombinant VDR (Homo sapiens, UniProt P11473); assay: VDR binding, fluorescence polarization-based competition assay (PolarScreen VDR Competitor Assay Red); settings: compounds evaluated at 100 μM
T3 construct: purchased Thermo Fisher Scientific
T3 sequence (P11473 1-427): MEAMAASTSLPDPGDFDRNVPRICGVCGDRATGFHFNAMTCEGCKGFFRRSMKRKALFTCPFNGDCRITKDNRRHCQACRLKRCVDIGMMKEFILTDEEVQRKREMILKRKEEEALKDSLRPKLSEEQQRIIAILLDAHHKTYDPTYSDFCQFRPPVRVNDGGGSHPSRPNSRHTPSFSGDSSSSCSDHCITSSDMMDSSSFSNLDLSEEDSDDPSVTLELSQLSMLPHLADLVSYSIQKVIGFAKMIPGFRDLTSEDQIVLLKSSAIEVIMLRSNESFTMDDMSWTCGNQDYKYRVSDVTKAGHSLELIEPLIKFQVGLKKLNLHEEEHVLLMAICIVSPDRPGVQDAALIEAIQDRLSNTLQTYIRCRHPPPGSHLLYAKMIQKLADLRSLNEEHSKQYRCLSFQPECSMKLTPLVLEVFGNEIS
Protocol: as §1
VDR binding assay was performed using a PolarScreen VDR Competitor Assay Red kit (Thermo Fisher Scientific, Carlsbad, CA, USA) per the manufacturer’s instructions. Compounds were evaluated at 100 μM in 2.5% final DMSO in triplicate. Calcitriol is utilized as a positive control for VDR binding.

[8] = system: Hh signaling pathway (Ptch mRNA) in C3H10T1/2 cells; assay: Ptch mRNA down-regulation (qPCR) in C3H10T1/2 cells; assay type: cell-based; settings: Mus musculus
[9] = system: Hh signaling pathway (Gli1 mRNA) in C3H10T1/2 cells; assay: Gli1 mRNA down-regulation (qPCR) in OHC-stimulated C3H10T1/2 cells; assay type: cell-based, mouse; settings: Mus musculus; for mrna remaining at 5 µM: C3H 10T1/2, 5 μM with OHCs 5 μM, 24 h, relative Gli1 mRNA levels compared to OHCs (set to 100%); for IC50: C3H 10T1/2, mean ± SEM
Protocol: as §1, §2, §3

Hh signaling pathway = assay: Anti-Hh activity in combination with vismodegib; assay type: cell-based; settings: combined with vismodegib 100 nM
[10] = system: Cyp24A1 mRNA in VDR−/− C3H10T1/2 cells; assay: Cyp24A1 up-regulation in VDR−/− C3H10T1/2 cells; assay type: cell-based, mouse; settings: 24 h
[11] = ASZ001 cells, 5 μM, 24 h, DMSO set to 1.0
[12] = ASZ001 cells, mean ± SEM, read-out: Gli1 IC50
[13] = C3H 10T1/2, C3H10T1/2 cells, mean ± SEM, read-out: Ptch IC50

Row | Structure (SMILES) | Ability to up-regulate Cyp24A1 versus wild-type cells [1] | GI50 [2] [µM] | Ability to inhibit Hh signaling (Gli1 down-regulation) versus wild-type cells [3] | GI50 (ASZ001 cells) [µM] | fold induction at 5 µM [4, 11] | IC50 [5, 12] [µM] | SPR interaction with Smo (Smo protein) | Ability to inhibit Hh signaling (Gli1 down-regulation) versus wild-type cells [6] | fold induction at 5 µM [7] | Displacement of BODIPY-Cyc from Smo (full-length human Smo) | VDR Binding (recombinant VDR) [µM] | IC50 [8, 13] [µM] | mrna remaining at 5 µM [9] [%] | IC50 [9] [µM] | Change of IC50 value in combination with vismodegib (Hh signaling pathway) | Ability to up-regulate Cyp24A1 versus wild-type cells [10] | Displacement of BODIPY-Cyc from Smo (full-length human Smo; listed as Cyc) | fold induction at 5 µM ([4]; ASZ001, 24 h) | IC50 ([5]; ASZ001, read-out: Gli1 IC50) [µM] | IC50 ([8]; C3H 10T1/2, read-out: Ptch IC50) [µM]
1 | CC(C)COC[C@@H](C)[C@H]1CC[C@H]2[C@@H](OC(=O)c3cc(O)cc(O)c3)CCC[C@]12C [Compound 3j] | significantly reduced | 6.7 ± 0.8 | mostly abolished | 13.4 ± 1.4 | 2.1 ± 0.3 | 5.5 ± 0.7 | exhibited interactions with Smo | modestly reduced | 11.4 ± 1.3 | neither 3j nor 4i affected BODIPY-Cyc-Smo binding interactions | >100 | 3.6 ± 0.5 | 2.4 ± 0.4 | 1.8 ± 0.3 | did not change the IC50 value | significantly reduced | – | – | – | –
2 | C[C@H](COCC(C)(C)O)[C@H]1CC[C@H]2[C@@H](OC(=O)c3cc(O)cc(O)c3)CCC[C@]12C [Compound 4i] | significantly reduced | 2.2 ± 0.3 | mostly abolished | 5.8 ± 0.8 | 87.4 ± 10.6 | 1.8 ± 0.3 | exhibited interactions with Smo | modestly reduced | 129 ± 16.8 | neither 3j nor 4i affected BODIPY-Cyc-Smo binding interactions | >100 | 1.9 ± 0.3 | 1.7 ± 0.3 | 1.1 ± 0.1 | did not change the IC50 value | significantly reduced | – | – | – | –
3 | CC1=C2C[C@H]3[C@@H](CC=C4C[C@@H](O)CC[C@@]43C)[C@@H]2CC[C@]12O[C@@H]1C[C@H](C)CN[C@H]1[C@H]2C [Cyclopamine, reference compound] | – | – | – | – | – | – | – | – | – | displaced BODIPY-Cyc in a concentration-dependent manner | – | – | – | – | – | – | displaced BODIPY-Cyc in a dose-dependent manner | – | – | –
4 | C=C1CC[C@H](O)C/C1=C/C=C1\CCC[C@]2(C)[C@@H]([C@H](C)CCCC(C)C)CC[C@@H]12 [VD3, Vitamin D3] | – | 6.4 ± 0.7 | – | 15.6 ± 1.7 | – | – | – | – | 8350 ± 102 | – | >100 | – | 32.5 ± 0.6 | 4.2 ± 0.4 | – | – | – | 821 ± 26.3 | 2.1 ± 0.2 | 3.3 ± 0.4
5 | CS(=O)(=O)c1ccc(C(=O)Nc2ccc(Cl)c(-c3ccccn3)c2)c(Cl)c1 [Vismodegib, reference compound] | – | 0.78 ± 0.1 | no activity | 2.1 | – | – | – | – | – | – | – | – | – | – | – | – | – | – | – | –

— paper PMC11855207, “Synthesis and Evaluation of Aromatic A-Ring 23-Oxavitamin D3 Analogues as Hedgehog Pathway Inhibitors” (International Journal of Molecular Sciences, 2025)
